Entries after “also recorded” stand apart in the source; their conditions may differ.
Experiments:
578 cancer cell lines = test: PRISM multiplexed cellular viability assay; type: cell-based; settings: for prediction of cell line sensitivity by SLC26A2 expression: more than 4,000 compounds profiled against 578 cancer cell lines
Method: Parental cell lines were obtained from the Cancer Cell Line Encyclopedia (CCLE) project (1). PRISM cell line barcoding, pooling, and screening was performed as previously described with several improvements to the original method (2). First, the lentiviral vector was modified to encode the unique barcode identifier at the end of the puromycin resistance gene. This enables barcodes to be detected using a variant of the mRNA capture and Luminex detection method developed for the L1000 gene expression assay (3). Second, a set of ten inert barcodes were spiked-in to each well of each plate after cell lysis to control for variation in PCR amplification as detailed below.
Luminex technology produced .Ixb files containing data for each Luminex bead observed during detection. These .Ixb files were processed to compute Median Fluorescence Intensity (MFI) values, calculated as the median of the values obtained for all beads corresponding to a single PRISM barcode.
MFI values were log-transformed (logMFI) and used to perform basic quality control. To detect probable screening artifacts, logMFI values were centered to the median logMFI for each cell line on each plate in order to put the measurements from each cell line on the same scale. For each well on each plate, the median of these centered values was then standardized according to the global median and global MAD across all plate wells in the same position. Data from wells with a standardized score of greater than 5 or less than −5 were excluded from all further processing steps.
For each cell line on each plate, the distribution of MFI values observed for the DMSO-treated negative controls was compared to that of the positive controls using a robust form of the Strictly Standardized Mean Difference (SSMD*)′. Specifically, SSMD* was calculated as: […]
Data corresponding to SSMD values less than 2 were removed before calculating cell viability.
The data in the instant disclosure were produced according to two different screening protocols. In the PR500 protocol, ten inert barcodes were spiked-in to each well of each plate after cell lysis. For data produced using the PR500 protocol, normalized MFI (nMFI) values were computed by taking the ratio of each MFI value against the median of the inert barcodes within each well. For data produced before the PR500 protocol was introduced, nMFI values were set equal to MFI values.
Cell viability was calculated as the ratio of nMFI to the median of the nMFI from the DMSO-treated negative controls for each cell line on each plate. Batch effects produced from variable detection and assay conditions were then removed using ComBat (4). The final viability values were calculated as the median of the batch-corrected cell viabilities from biological replicates for each cell line, compound and dose.
Measures of dose response were obtained by fitting 3-parameter logistic curves to viability values for each compound and cell line using the R package ‘drc’. Following the practice of Smirnov and Safikhani (5), viability was truncated at 1.0 and fit as a function of drug concentration according to:
[formula] where all concentrations are in the natural logarithm scale. IC50 values were defined as the concentration c at which V(c)=0.5, given by the formula:
[formula] The Area Under the dose response Curve (AUC) was calculated using the normalized integral: […]
The formulation above puts AUC values on a scale between 0 and 1, where lower AUC values indicate increased sensitivity to the treatment.

[1] = tested on: SLC26A2 knockouts in A375, OVISE, and A2058 cell lines; test: CellTiter-Glo cellular viability assay in CRISPR-Cas9 SLC26A2 knockout cell lines; type: cell-based; settings: FIGS. 7A-7C
Excerpt: XP003, XP023, psPAX, and pMD2.G vectors were acquired from the Broad Genetic Perturbation Platform (GPP). Oligos for sgRNAs designs were generated using Broad GPP sgRNA guide generator resource (on the World Wide Web at (www)broad institute.org/gpp/db/analvsis-tools/sgrna-design) and the respective oligos were synthesized by Integrated DNA Technologies. In order to clone the sgRNAs into either the XPR003 guide only or XPRO23 all-in-one crispr lentiviral expression systems the protocol available on the Broad GPP website (www.broadinstitute.org/gpp/db/resources/protocols) was followed.
In order to generate viral vectors, HEK293T cells were seeded in 6 well plates at a density of 1.5E6 cells per well. Cells were then transfected with a mixture of TranslT@-LT1 Transfection Reagent (MirusBio #M1R2304), psPAX2, pMD2.G, lentiviral plasmid diluted in Opti-MEM™ (Thermo #31985062). The following day media was changed DMEM (Thermo #10566016) with 30% FBS (Sigma 18A079). 72 hrs after transfection, virus containing media was collected and run through a 0.2 uM filter to remove cellular debris. Virus was aliquoted and stored short term at −20 C until infection day. […]
Cell viability was assayed using a modified manufacturer's protocol for CellTiter-Glo® (Promega #G7573). […] Luminescence was measured with an integration time of 0.1 s using Envision Microplates Reader (PERKIN ELMER #2105-0010). […]

[2] = diabetic rats; cited from earlier work
[3] = target: T1, protein tyrosine phosphatase-1B (PTP-1B) (Homo sapiens, UniProt P18031); settings: cited from earlier work
T1 sequence (P18031 1-435): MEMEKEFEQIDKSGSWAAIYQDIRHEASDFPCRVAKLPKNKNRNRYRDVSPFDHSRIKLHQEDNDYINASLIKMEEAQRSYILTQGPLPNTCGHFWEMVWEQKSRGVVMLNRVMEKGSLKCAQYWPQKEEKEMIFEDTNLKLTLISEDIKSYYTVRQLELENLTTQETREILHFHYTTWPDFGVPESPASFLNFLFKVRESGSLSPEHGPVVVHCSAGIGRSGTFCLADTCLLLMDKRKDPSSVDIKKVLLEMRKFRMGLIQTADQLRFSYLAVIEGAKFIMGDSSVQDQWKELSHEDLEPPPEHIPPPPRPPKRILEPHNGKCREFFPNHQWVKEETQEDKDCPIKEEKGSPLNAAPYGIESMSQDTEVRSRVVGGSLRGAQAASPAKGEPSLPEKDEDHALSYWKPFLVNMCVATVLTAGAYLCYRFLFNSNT

SMILES | prediction of cell line sensitivity by SLC26A2 expression (578 cancer cell lines) | selective killing of cancer cell lines (578 cancer cell lines; SLC26A2-high versus lower SLC26A2 expression cell lines) | effect of SLC26A2 knockout on BMOV sensitivity (percent viability curves) [1] | glycaemia and insulin levels [2] | phosphatase inhibition [3]
CCc1occc(=O)c1[O][V](=[O])[O]c1c(CC)occc1=O [BEOV, bis(ethylmaltolato)oxovanadium(IV)] | high SLC26A2 transcriptional target gene expression predicted cell line sensitivity |  |  |  | 
CC(C)c1occc(=O)c1[O][V](=[O])[O]c1c(C(C)C)occc1=O [BIOV, bis(isopropylmaltolato)oxovanadium(IV)] | high SLC26A2 transcriptional target gene expression predicted cell line sensitivity |  |  |  | 
CCCCc1occc(=O)c1[O][V](=[O])[O]c1c(CCCC)occc1=O [BnBOV, bis(n-butylmaltolato)oxovanadium(IV)] | high SLC26A2 transcriptional target gene expression predicted cell line sensitivity |  |  |  | 
Cc1occc(=O)c1[O][V](=[O])[O]c1c(C)occc1=O [BMOV, bis(maltolato)oxovanadium(IV)] | high SLC26A2 transcriptional target gene expression predicted cell line sensitivity | selective killing of SLC26A2-high cancer cell lines; also recorded: selectively kills ovarian cancer cells, bone cancer cells, and melanoma cells | SLC26A2 knockouts rescue BMOV sensitivity | restore normoglycaemia without rising insulin levels | potent phosphatase inhibitor
